Measurements taken from patent US9296745B2, “Diacylglycerol acyltransferase 2 inhibitors” (Pfizer Inc., priority 2012, dated 2016).

Target: Human DGAT2 (hDGAT2) (Homo sapiens (Human), UniProt Q96PD7)
Experiment: In vitro DGAT2 assay, IC50 determination with hDGAT2 membrane fraction
Format: biochemical
Conditions: geometric mean; background for complete inhibition of DGAT2 obtained with 50 μM (1R,2R)-2-({3′-Fluoro-4′-[(6-fluoro-1,3-benzothiazol-2-yl)amino]-1,1′-biphenyl-4-yl}carbonyl)cyclopentanecarboxylic acid; read-out: DGAT2 IC50
Protocol: Recombinant baculovirus for the FLAG-tagged hDGAT2 was generated in SF9 insect cells using Bac-to-Bac baculovirus expression system (Invitrogen) according to the manufacturer's protocol. For the expression of hDGAT2, SF9 cells (20 L) grown in Sf900II media were infected with hDGAT2 baculovirus at a multiplicity of infection of 1 in a Wave Bioreactor System 20/50P wave bag (GE Healthcare). After 40 hours of infection, the cells were then harvested by centrifugation at 5,000×g. The cell pellets were washed by resuspending in phosphate buffered saline (PBS) and collected by centrifugation at 5,000×g. The cell paste was flash frozen in liquid N2 and stored at −80° C. until needed. All operations below were at 4° C. unless otherwise noted. The cells were resuspended in lysis buffer (50 mM Tris-HCl, pH 8.0, 250 mM sucrose) including 1 mM ethylenediaminetetraacetic acid (EDTA) and the complete protease inhibitor cocktail (Roche Diagnostics) at a ratio of 3 ml buffer per 1 g cell paste. The cells were lysed by dounce homogenizer. The cell debris was removed by centrifugation at 1,000×g for 20 min, and the supernatant was centrifuged at 100,000×g for 1 hour. The resulting pellet was rinsed three times by filling ultracentrifuge tubes to the top with ice cold PBS before decanting. The washed pellet was resuspended with gentle stirring for 1 hour in lysis buffer containing 8 mM 3-[(3-cholamidopropyl)dimethylammonio]-1-propanesulfonate (CHAPS) at a ratio of 1 mL buffer per 1 g of original cell paste and centrifuged again at 100,000×g for 1 hour. The resulting supernatant (hDGAT2 membrane fraction) was aliquotted, flash frozen in liquid N2, and stored at −80° C. until use.
To 1 μL of compounds dissolved in 100% DMSO and spotted at the bottom of each well, 5 μL of 0.04% bovine serum albumin (BSA) (fatty acid free, Sigma Aldrich) was added and the mixture was incubated at room temperature for 20 minutes. To this mixture, 10 μL of hDGAT2 membrane fraction (0.01 mg/mL) diluted in 100 mM Hepes-NaOH, pH 7.4, 20 mM MgCl2 containing 200 nM methyl arachidonyl fluorophosphonate (Cayman Chemical; dried from ethyl acetate stock solution under argon gas and dissolved in DMSO as 5 mM stock) was added. […] The reaction mixtures were incubated at room temperature for 40 min and the reactions were stopped by addition of 5 μL of 1% H3PO4. After the addition of 45 μL MicroScint-E (Perkin-Elmer), plates were sealed with Top Seal-A covers (Perkin-Elmer) and phase partitioning of substrates and products was achieved using a HT-91100 microplate orbital shaker (Big Bear Automation, Santa Clara, Calif.). Plates were centrifuged at 2,000×g for 1 min in an Allegra 6R Centrifuge (Beckman Coulter) and then were sealed again with fresh covers before reading in a 1450 Microbeta Wallac Trilux Scintillation Counter (Perkin Elmer). DGAT2 activity was measured by quantifying the generated product [^14C]tridecanoylglycerol in the upper organic phase.
Inhibitors were tested at eleven different concentrations to generate IC50 values for each compound. […] Results are reported as geometric mean IC50 values.

Sequence of Human DGAT2 (hDGAT2) (Q96PD7 whole entry): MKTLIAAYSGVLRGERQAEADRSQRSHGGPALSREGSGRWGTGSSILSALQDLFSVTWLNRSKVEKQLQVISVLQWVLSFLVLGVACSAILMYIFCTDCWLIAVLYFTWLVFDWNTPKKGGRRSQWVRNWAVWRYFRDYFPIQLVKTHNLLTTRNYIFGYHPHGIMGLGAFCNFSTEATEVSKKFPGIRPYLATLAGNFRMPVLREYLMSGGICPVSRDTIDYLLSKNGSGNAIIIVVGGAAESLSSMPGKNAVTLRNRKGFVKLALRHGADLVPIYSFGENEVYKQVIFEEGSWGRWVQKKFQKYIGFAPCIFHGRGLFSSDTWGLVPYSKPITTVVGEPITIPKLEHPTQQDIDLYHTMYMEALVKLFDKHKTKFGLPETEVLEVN

Compound | IC50 [nM]
c1cc(-c2nc3ccc(N4CCCC(c5nnc6n5CCC6)C4)nc3[nH]2)nc(C2CC2)c1 (racemic) [Example 169, 2-(6-Cyclopropylpyridin-2-yl)-5-(3-(6,7-dihydro-5H-pyrrolo[2,1-c][1,2,4]triazol-3-yl)piperidin-1-yl)-3H-imidazo[4,5-b]pyridine] | 292
CC(C)COC(=O)N1CCCC(c2nc3ccc(N4CCC[C@@H](C(=O)N5CCCC5)C4)nc3[nH]2)C1 (stereo in doubt) [Example 61, (R)-iso-Butyl 3-(5-(3-(pyrrolidine-1-carbonyl)piperidin-1-yl)-3H-imidazo[4,5-b]pyridine-2-yl)piperidine-1-carboxylate] | 86.4
Cc1cccc(-c2nc3ccc(N4CCC[C@@H](C(=O)N5CCCC5)C4)nc3[nH]2)c1 [Example 5, (R)-Pyrrolidin-1-yl(1-(2-m-tolyl-3H-imidazo[4,5-b]pyridin-5-yl)piperidin-3-yl)methanone] | 8.24
O=C([C@@H]1CCCN(c2ccc3nc(-c4cccc(-c5cnco5)c4)[nH]c3n2)C1)N1CCCC1 [Example 6, (R)-(1-(2-(3-(Oxazol-5-yl)phenyl)-3H-imidazo[4,5-b]pyridin-5-yl)piperidin-3-yl)(pyrrolidin-1-yl)methanone] | 11.5
O=C([C@@H]1CCCN(c2ccc3nc(-c4cncc(Cl)c4)[nH]c3n2)C1)N1CCCC1 [Example 7, (R)-(1-(2-(5-Chloropyridin-3-yl)-3H-imidazo[4,5-b]pyridin-5-yl)piperidin-3-yl)(pyrrolidin-1-yl)methanone] | 16.3
CNS(=O)(=O)c1cccc(-c2nc3ccc(N4CCC[C@@H](C(=O)N5CCCC5)C4)nc3[nH]2)c1 [Example 8, (R)-N-Methyl-3-(5-(3-(pyrrolidine-1-carbonyl)piperidin-1-yl)-3H-imidazo[4,5-b]pyridin-2-yl)benzenesulfonamide] | 21.1
O=C([C@@H]1CCCN(c2ccc3nc(-c4cnn(-c5ccccc5)c4)[nH]c3n2)C1)N1CCCC1 [Example 9, (R)-(1-(2-(1-Phenyl-1H-pyrazol-4-yl)-3H-imidazo[4,5-b]pyridin-5-yl)piperidin-3-yl)(pyrrolidin-1-yl)methanone] | 22.1
O=C([C@@H]1CCCN(c2ccc3nc(-c4ccnc(N5CCCC5)n4)[nH]c3n2)C1)N1CCCC1 [Example 10, (R)-Pyrrolidin-1-yl(1-(2-(2-(pyrrolidin-1-yl)pyrimidin-4-yl)-3H-imidazo[4,5-b]pyridin-5-yl)piperidin-3-yl)methanone] | 29.2
Cc1csc(-c2nc3ccc(N4CCC[C@@H](C(=O)N5CCCC5)C4)nc3[nH]2)n1 [Example 11, (R)-(1-(2-(4-Methylthiazol-2-yl)-3H-imidazo[4,5-b]pyridin-5-yl)piperidin-3-yl)(pyrrolidin-1-yl)methanone] | 35

Molecules with a lower IC50, results first:

IC50 [nM] | Compound
1.7 | O=C([C@@H]1CCCN(c2ccc3nc(-c4cccc(OC(F)(F)F)c4)[nH]c3n2)C1)N1CCCC1 [Example 1, (R)-Pyrrolidin-1-yl(1-(2-(3-(trifluoromethoxy)phenyl)-3H-imidazo[4,5-b]pyridin-5-yl)piperidin-3-yl)methanone]
2.71 | CC(C)Cc1csc(-c2nc3ccc(N4CCC[C@@H](C(=O)N5CCCC5)C4)nc3[nH]2)n1 [Example 2, (R)-(1-(2-(4-Isobutylthiazol-2-yl)-3H-imidazo[4,5-b]pyridin-5-yl)piperidin-3-yl)(pyrrolidin-1-yl)methanone]
4.82 | O=C([C@@H]1CCCN(c2ccc3nc(-c4cccc(-n5cccn5)c4)[nH]c3n2)C1)N1CCCC1 [Example 3, (R)-(1-(2-(3-(1H-Pyrazol-1-yl)phenyl)-3H-imidazo[4,5-b]pyridin-5-yl)piperidin-3-yl)(pyrrolidin-1-yl)methanone]
6.64 | CC(C)c1csc(-c2nc3ccc(N4CCC[C@@H](C(=O)N5CCCC5)C4)nc3[nH]2)n1 [Example 4, (R)-(1-(2-(4-Isopropylthiazol-2-yl)-3H-imidazo[4,5-b]pyridin-5-yl)piperidin-3-yl)(pyrrolidin-1-yl)methanone]
